According to PubChem BioAssay (NCI):
“And” between values parts separate entries of the source, which are not always exact repeats. Equal values may be shown once.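 Test compounds were applied to cells in 96-well plates for 48 hours at 5 doses. At the GI50, growth is halved. TGI is the concentration that stops growth completely.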

Columns and labels:
Experiment in all cases: inhibition of tumour cell growth, NCI panel, 48 h
OVCAR-5 ovarian = test system: OVCAR-5 ovarian
786-0 renal = test system: 786-0 renal
A498 renal = test system: A498 renal
SW-620 colon = test system: SW-620 colon
HOP-92 NSCLC = test system: HOP-92 NSCLC
MOLT-4 leukemia = test system: MOLT-4 leukemia
A549 NSCLC = test system: A549 NSCLC
HL-60(TB) leukemia = test system: HL-60(TB) leukemia
OVCAR-8 ovarian = test system: OVCAR-8 ovarian
NCI-H522 lung = test system: NCI-H522 lung

Compound | TGI (OVCAR-5 ovarian) [µM] | TGI (786-0 renal) [µM] | TGI (A498 renal) [µM] | TGI (SW-620 colon) [µM] | TGI (HOP-92 NSCLC) | TGI (MOLT-4 leukemia) [µM] | TGI (A549 NSCLC) [µM] | TGI (HL-60(TB) leukemia) | TGI (OVCAR-8 ovarian) [µM] | TGI (NCI-H522 lung) | GI50 (OVCAR-5 ovarian) [µM] | GI50 (786-0 renal) [µM] | GI50 (A498 renal) [µM] | GI50 (SW-620 colon) [µM] | GI50 (HOP-92 NSCLC) [µM] | GI50 (MOLT-4 leukemia) [µM] | GI50 (A549 NSCLC) [µM] | GI50 (HL-60(TB) leukemia) [µM] | GI50 (OVCAR-8 ovarian) [µM] | GI50 (NCI-H522 lung) [µM]
NS(=O)(=O)c1ccc(NC(=O)Cc2nc3ccccc3s2)cc1 | 35.2 | 33.5 | 36.8 | 31.7 | 29.8 µM | 58.6 | 37.9 | 45.7 µM | 34.9 | 33.2 µM | – | – | – | – | – | – | – | – | – | –
CCOc1cn(C2OC(CO)C(O)C2O)c(=O)[nH]c1=O (stereo not given) | > 100 | > 100 | > 100 | 89.5 | > 100 µM | > 100 | > 100 | > 100 µM | > 100 | > 100 µM | – | – | – | – | – | – | – | – | – | –
COc1cc(/C=C/c2cc(/C=C/c3ccc(O)c(OC)c3)n(C(=O)Nc3ccccc3Cl)n2)ccc1O | 5.5 | 1.57 | 2.04 | 1.69 | 2.39 µM | 1.2 | 2.08 | 0.721 µM | 1.6 | 0.672 µM | 1.65 | 0.426 | 0.487 | 0.389 | 0.349 | 0.269 | 0.336 | 0.282 | 0.378 | 0.112
CC1(C)N=C(N)N=C(N)N1c1ccc(Cl)cc1 | > 100 | > 100 | > 100 | > 100 | > 100 µM | > 100 | > 100 | > 100 µM | > 100 | > 100 µM | 0.854 | 0.414 | > 100 | 0.832 | > 100 | 62.3 | 1.25 | > 100 | 2.17 | 14.6
N#CCC(=O)N/N=C1/C(=O)N(c2cc(Cl)ccc2Cl)C(=O)C(=O)C1c1nc2ccccc2s1 (stereo not given) | > 100 | > 100 | > 100 | > 100 | 83.1 µM | > 100 | > 100 | > 100 µM | > 100 | > 100 µM | – | – | – | – | – | – | – | – | – | –
C=CC(=O)NC(N)=NC#N | 317 | 300 | 285 | 314 | > 63.7 µM and 252 µM | 555 | 345 | > 66.3 µM and 327 µM | 484 | 36.9 µM and 4.09 µM | – | – | – | 160 | 103 | 197 | – | 132 | – | 1.95
Cc1ccc(C=C2C(Cl)=C(Cl)C(Cl)=C2Cl)cc1 | 2.49 | 1.75 | 2.91 | 1.18 | 4.35 µM | 0.493 | 3.84 | 1.53 µM | 9.45 | 1.01 µM | 0.978 | 0.721 | 1.43 | 0.339 | 1.33 | 0.186 | 1.7 | 0.363 | 0.418 | 0.322
CN(C)CCCSc1ccccc1NC1=C(Cl)C(=O)C(Nc2ccccc2SCCCN(C)C)=C(Cl)C1=O | 3.29 | 3.17 | 20.6 | 4.38 | 3.06 µM | 2.68 | 17 | 2.91 µM | 3.99 | 2.89 µM | 1.78 | 1.72 | 8.36 | 2.17 | 1.48 | 0.41 | 5.43 | 0.69 | 2.03 | 1.07
COc1cc(-c2nc3sc(C)cn3c2/C=C2\C(=O)Nc3ccccc32)c(Br)c(OC)c1OC | > 100 | 50.5 | 63.5 | > 100 | 77 µM | > 100 | > 100 | > 100 µM | > 100 | 57.3 µM | 55.9 | 21.6 | 29 | 30.6 | 26.7 | 36.4 | 44 | 29.2 | > 100 | 22.2
CCOC(=O)C(CCC(N)=O)(CCC(=O)OC)C(=O)OCC | > 100 | > 100 | > 100 | > 100 | > 100 µM | > 100 | > 100 | > 100 µM | > 100 | > 100 µM | – | – | – | – | – | – | – | – | – | –
CCn1c2ccccc2c(=O)c2c(OC)ccc(OC)c21 | > 100 | > 100 | > 100 | > 100 | 98.7 µM | > 100 | > 100 | > 82.4 µM | > 100 | > 93.8 µM | – | – | – | – | – | – | – | – | – | –
CC(C)(C)CC(C)(C)c1ccc(O)c(Cc2ccc(Cl)cc2Cl)c1 | 3.08 | 3.1 | 2.61 | 2.99 | 2.76 µM | 3.44 | 2.83 | 3.72 µM | 2.96 | 2.7 µM | 1.68 | 1.65 | 1.33 | 1.64 | 1.39 | 1.66 | 1.51 | 2.01 | 1.61 | 1.37
COc1ccc(/C=C2\COc3ccc(O)c(O)c3C2=O)c(OC)c1OC | 12.8 | 10.7 | 20.8 | 9.53 | 9.91 µM | > 100 | > 100 | 6.71 µM | > 100 | 3.22 µM | 3.64 | 2.95 | 5.54 | 2.77 | 2.97 | 1.87 | 3.11 | 2.4 | 3.16 | 0.933
C[C@@H](NS(=O)(=O)c1ccc(NC(=O)c2ccccc2)cc1)C(=O)O | > 100 | > 100 | > 100 | > 100 | > 100 µM | > 100 | > 100 | > 100 µM | > 100 | > 100 µM | – | – | – | – | – | – | – | – | – | –
COC(=O)c1cc2oc(/C=C3/SC(=S)N(N)C3=O)cc2n1Cc1ccccc1 | 20.7 | 8.53 | 6.48 | > 29.5 | 12.8 µM | > 100 | 33.1 | > 100 µM | 22.7 | 21.8 µM | 4.65 | 2.84 | 2.16 | 13.4 | 1.47 | 4.23 | 5.12 | > 15.7 | 3.24 | 7.81
